Test results as given in BigSolDB 2.1.

Details: in water

O=S(=O)([O-])c1cccc2ccccc12.[Na+]
Details | solubility (mole fraction)
278.15 K | 0.0107
283.15 K | 0.0109
288.15 K | 0.0113
293.15 K | 0.0119
298.15 K | 0.0126
303.15 K | 0.0134
308.15 K | 0.0141
313.15 K | 0.0152
318.15 K | 0.0169
323.15 K | 0.0192
